Data as given in US8257725B2, “Delivery of highly lipophilic agents via medical devices” (Abbott Laboratories, priority 1997, dated 2012).
Blank lines part the entries; values can stand above or below the compound they belong to.

Key:
[1] = Pig model, zotarolimus concentrations in tissues after ZoMaxx stents; type: in vivo; conditions: eluted from ZoMaxx stents, FIG. 25
[2] = representative summary for suitable beneficial agents; cited from earlier work
[3] = Octanol/water partition coefficient, shake-flask method; type: physicochemical; conditions: for transfer coefficient (P divided by S), order: FIG. 21, S = equilibrium aqueous solubility (μg/ml); for lipophilicity (partition coefficient octanol/water): n-octanol/buffered water
Protocol: “Solubility” is based on a standard measure used in medicinal chemistry. The octanol-water partition coefficient (P) is the ratio of distribution of a compound in a mixture of 1-octanol and H2O. LogP is the base 10 logarithm of the partition coefficient.
In the measurement of the partition coefficient (octanol/water), preliminary studies were conducted to determine the optimum drug concentration for each test, and the appropriate time for establishing the partition equilibrium. All experiments were carried out by two different analysts and on multiple drug lots.
A transfer coefficient, τ, can be defined as P divided by S, where P equals the partition coefficient and S equals theequilibrium aqueous solubility, (μg/ml) as shown in FIG. 21. […] Where S equals the equilibrium aqueous solubility of the amorphous form of the drug were possible.

[4] = Pharmacokinetics after single intravenous dose in cynomolgus monkey; conditions: single 2.5 mg/kg intravenous dose
[5] = Six-hour elution from PC1036-coated coupons in pH 7.4 phosphate buffered saline; type: physicochemical; conditions: for amount released from the coupon: after six hours, PBS pH 7.4, 37° C.; for amount remaining on the coupon: six-hour elution
Protocol: Prior to any experimentation, coated stainless steel coupons were prepared. These coupons were 316L electropolished stainless steel discs (10 mm diameter). This size was chosen because the surface area of one side of the coupon is similar to the surface area of a 15-mm open cell BiodivYsio stent. […]. The cleaning was a two-step process in which the coupons are sonicated for 3 minutes in dichloromethylene and 3 minutes in ethanol. The coupons were allowed to dry at room temperature. One side of the coupon was coated using a filtered 20-mg/mL solution of phosphoryl choline polymer PC1036 (product of Biocompatibles Ltd., Famham, Surrey, UK) in ethanol. Twenty μL PC solution was placed onto the coupon using a gas tight glass syringe, ensuring that the entire surface was coated but not spilling over the sides of the coupon. The coupons were initially air dried and then cured at 70° C. for 16 hours. They were then sent for gamma irradiation at <25 KGy. The resulting PC coating thickness was close to that of the stent and thick enough to accommodate the desired loaded drug dose, as graphically represented in FIG. 9A-B. FIG. 9A-B is a top and side view of a coated stainless steel coupon 30, having a PC-coating 20 on a electropolished stainless steel disc.
In these experiments, beneficial agents were loaded onto coupons and elution profiles examined. In general, the procedure is as follows. Twelve PC-coated coupons were loaded with each drug. The solutions of the drugs were usually 5.0 mg/mL in 100% ethanol and were filtered with a 0.45 μm filter prior to use.
The coupons were weighed before loading with the drug solution. To load 100 μg of drug, 20 μL of solution was placed (e.g., pipetted) on the center of the PC coated side of the coupon. The coupon was placed in a vial for 30 minutes with the lid closed to allow the drug to penetrate the coating. The lid was removed and the coupon was allowed to dry for an additional 90 minutes. To ensure that the coupon was completely dry, the coupon was weighed, and after 15 minutes the coupon was weighed a third time. When two weightings of the coupon were the same, the coupon was considered dry. The loaded, dry coupons were stored in a refrigerator protected from light.
Six coated coupons of each drug were used for the elution experiments. The coupons were individually placed, coating side up, in small metal cups to hold the coupon and to allow movement to a new vial at each time point. The coupons were usually placed in a vial containing 10 mL of pH 7.4 phosphate buffered saline. The vials were stored in an orbital shaker, with horizontal shaking of 100 rpm, at 37° C. for at least 30 minutes before insertion of a coupon to allow the solution to equilibrate at the desired temperature. After the desired time had lapsed, the coupon holder was lifted and allowed to drain. It was then placed into a pre-warmed vial corresponding to the next time point. This procedure continued until the predetermined time had elapsed. At that point, the coupons went through a drug extraction step as outlined earlier. The amount of drug in the elution samples was determined by HPLC.

[6] = Stability of drug on PC-coated stents after ETO sterilization (HPLC); type: physicochemical
Protocol: In these experiments, beneficial agents were loaded onto stents and the stability of the two drugs was examined. In general, the procedure was as follows. Multiple PC-coated stents were loaded with each drug combination from solution. The solutions of the drugs were usually in the range of 2-20 mg/mL of zotarolimus and 10.0 mg/mL dexamethasone in 100% ethanol, with ˜10% PC1036 added to the solution to enhance film formation.
The stents were weighed before loading with the drug solution. To load approximately […] of each drug, a solution with equal amounts of zotarolimus and dexamethasone was sprayed onto the stent in a controlled fashion. The stent was allowed to dry before the stents were re-weighed to determine total drug load. The loaded, dry stents were stored in a refrigerator and were protected from light.
After drug loading, stents were crimped onto catheter balloons and packaged into medical product Tyvek pouches for ETO (ethylene oxide) sterilization. The ETO sterilization process is standard in the medical device industry to ensure product safety. […]
For each drug, multiple stents were used to evaluate the purity and stability of the drug loaded by the above procedure. […] The concentration and the presence of degradant-related impurities of the drug in the extraction solution were analyzed by HPLC.

[7] = Aqueous solubility, shake-flask method; conditions: amorphous DES drugs; dexamethasone crystalline
[8] = alone, in the absence of zotarolimus

- concentration in arterial tissue adjacent to the stent placement ([1]; all periods out to 28 days): substantial concentrations
- lipophilicity (partition coefficient octanol/water) ([3]; shake-flask, FIG. 20): most lipophilic of all DES drugs tested
Compound: 3 S,6R,7E,9R,10R,12R,14S,15E,17E,19E,21S, 23S,26R,27R,34aS)-9,10,12,13,14,21,22,23,24,25,26,27,32,33,34,34a-Hexadecahydro-9,27-dihydroxy-3-[(1R)-2-[(1S,3R,4R)-3-methoxy-4-tetrazol-1-yl)cyclohexyl]-1-methylethyl]-10,21-dimethoxy-6,8,12,14,20,26-hexamethyl-23,27-epoxy-3H-pyrido[2,1-c][1,4]oxaazacyclohentriacontine-1,5,11,28,29(4H,6H,31H)-pentone [Zotarolimus]
- concentration in distal, unstented and subjacent myocardium and unstented and distal coronary arteries ([1]; throughout 28 days): therapeutically significant concentrations
- LogP Values [2]: >4.5
- transfer coefficient (P divided by S), order [3]: zotarolimus>>paclitaxel>>rapamycin>dexamethasone
- lipophilicity relative to rapamycin ([3]; shake-flask, FIG. 20): more than two times as lipophilic as rapamycin

- t1/2 ([4]; terminal elimination half-life): 2.8 h
Compound: 40-epi-N-[2′-pyridone]-rapamycin [Example 2-pyridone]

Compound: CO[C@H]1C[C@@H]2CC[C@@H](C)[C@@](O)(O2)C(=O)C(=O)N2CCCC[C@H]2C(=O)O[C@H]([C@H](C)C[C@@H]2CC[C@H](n3ncnn3)[C@H](OC)C2)CC(=O)[C@H](C)/C=C(\C)[C@@H](O)[C@@H](OC)C(=O)[C@H](C)C[C@H](C)/C=C/C=C/C=C/1C (single isomer, unassigned; less polar) [Example 1, 42-Epi-(tetrazolyl)-rapamycin (less polar isomer)]
- terminal elimination half-life (t1/2) compared to rapamycin [4]: substantially shorter

- amount released from the coupon [5, 8]: 50%
- amount released from the coupon ([5]; in the presence of zotarolimus): less than 10%
Compound: CCCCN(CCCC)C(=O)CN1C[C@H](c2ccc3c(c2)OCO3)[C@@H](C(=O)O)[C@@H]1c1ccc(OC)cc1 [ABT-627, atrasentan]

- degradation in the ETO sterilization environment ([6]; dexamethasone-only coating): degraded
- degradation in the ETO sterilization environment ([6]; loaded in combination with zotarolimus, 1-to-1 ratio): did not degrade
- amount remaining on the coupon ([5]; coupon containing dexamethasone and zotarolimus): ~70%
- amount remaining on the coupon ([5]; no zotarolimus present): 25%
Compound: C[C@@H]1C[C@H]2[C@@H]3CCC4=CC(=O)C=C[C@]4(C)[C@@]3(F)[C@@H](O)C[C@]2(C)[C@@]1(O)C(=O)CO [Dexamethasone]
- Aqueous solubility, increasing order [7]: paclitaxel, zotarolimus, rapamycin, and dexamethasone (crystalline)
- LogP Values [2]: ~1.9–2.2

- amount released from the coupon [5, 8]: ~90%
- amount released from the coupon ([5]; in the presence of zotarolimus): about 52%
Compound: OCCN(CCO)c1nc(N2CCCCC2)c2nc(N(CCO)CCO)nc(N3CCCCC3)c2n1 [Dipyridamole]

Compound: CC(=O)O[C@H]1C(=O)[C@@]2(C)[C@H]([C@H](OC(=O)c3ccccc3)[C@]3(O)C[C@H](OC(=O)[C@H](O)[C@@H](NC(=O)c4ccccc4)c4ccccc4)C(C)=C1C3(C)C)[C@]1(OC(C)=O)CO[C@@H]1C[C@@H]2O [Paclitaxel]
- Aqueous solubility, increasing order [7]: paclitaxel, zotarolimus, rapamycin, and dexamethasone (crystalline)
- transfer coefficient (P divided by S), order [3]: zotarolimus>>paclitaxel>>rapamycin>dexamethasone

Compound: CO[C@H]1C[C@@H]2CC[C@@H](C)[C@@](O)(O2)C(=O)C(=O)N2CCCC[C@H]2C(=O)O[C@H]([C@H](C)C[C@@H]2CC[C@@H](O)[C@H](OC)C2)CC(=O)[C@H](C)/C=C(\C)[C@@H](O)[C@@H](OC)C(=O)[C@H](C)C[C@H](C)/C=C/C=C/C=C/1C [Rapamycin]
- Aqueous solubility, increasing order [7]: paclitaxel, zotarolimus, rapamycin, and dexamethasone (crystalline)
- LogP Values [2]: >4.5
- transfer coefficient (P divided by S), order [3]: zotarolimus>>paclitaxel>>rapamycin>dexamethasone
- lipophilicity (partition coefficient octanol/water) ([3]; shake-flask, FIG. 20): most lipophilic compounds in the group tested
